According to patent US20250212879A1, “HERBICIDAL COMPOUNDS” (SYNGENTA CROP PROTECTION AG, priority 2022, published 2025):

What was measured:
Type in all cases: in vivo
Details in all cases: 250 g/ha, evaluated after 13 days, 100=total damage to plant, 0=no damage to plant
[1] = test system: Ipomoea hederacea (IPOHE); assay: Post-emergence biological efficacy, IPOHE
Protocol: (§1) Seeds of weeds and/or crops were sown in standard soil in pots (Amaranthus palmeri (AMAPA), (CHEAL), Euphorbia heterophylla (EPHHL), Ipomoea hederacea (IPOHE), Eleusine indica (ELEIN), Lolium perenne (LOLPE), Digitaria sanguinalis (DIGSA), Setaria faberi (SETFA), Echinochloa crus-galli (ECHCG)). After cultivation for 14 days under controlled conditions in a glasshouse (at 24/19° C., day/night; 16 hours light), the plants were sprayed with an aqueous spray solution derived from the formulation of the technical active ingredient in a small amount of acetone and a special solvent and emulsifier mixture referred to as IF50 (11.12% Emulsogen EL360 TM+44.44% N-methylpyrrolidone+44.44% Dowanol DPM glycol ether), to create a 50 g/l solution which was then diluted using 0.2% Genapol XO80 as diluent to give the desired final dose of test compound. Compounds were applied at a 250 g/ha unless otherwise stated. The test plants were then grown under controlled conditions in the glasshouse (at 24/18° C., day/night; 15 hours light; 50% humidity) and watered twice daily. After 13 days the test was evaluated (100=total damage to plant; 0=no damage to plant).

[2] = test system: Euphorbia heterophylla (EPHHL); assay: Post-emergence biological efficacy, EPHHL
Protocol: as §1

Setaria faberi (SETFA) [3] = assay: Post-emergence biological efficacy, SETFA
Protocol: as §1

[4] = test system: Euphorbia heterophylla (EPHHL); assay: Pre-emergence biological efficacy, EPHHL
Protocol: as §1, with “Lolium perenne (LOLPE),” for “(CHEAL),”, “(EPHHL),” for “(EPHHL), Ipomoea hederacea (IPOHE), Eleusine indica (ELEIN), Lolium perenne (LOLPE), Digitaria sanguinalis (DIGSA),”, “(ECHCG), Ipomoea hederacea (IPOHE)).” for “(ECHCG)).”, “one day” for “14 days”, “X080” for “XO80”

[5] = test system: Echinochloa crus-galli (ECHCG); assay: Post-emergence biological efficacy, ECHCG
Protocol: as §1

[6] = test system: Echinochloa crus-galli (ECHCG); assay: Pre-emergence biological efficacy, ECHCG
Protocol: as §1, with “Lolium perenne (LOLPE),” for “(CHEAL),”, “(EPHHL),” for “(EPHHL), Ipomoea hederacea (IPOHE), Eleusine indica (ELEIN), Lolium perenne (LOLPE), Digitaria sanguinalis (DIGSA),”, “(ECHCG), Ipomoea hederacea (IPOHE)).” for “(ECHCG)).”, “one day” for “14 days”, “X080” for “XO80”

Lolium perenne (LOLPE) [7] = assay: Post-emergence biological efficacy, LOLPE
Protocol: as §1

[8] = test system: Digitaria sanguinalis (DIGSA); assay: Post-emergence biological efficacy, DIGSA
Protocol: as §1

[9] = test system: Amaranthus palmeri (AMAPA); assay: Pre-emergence biological efficacy, AMAPA
Protocol: as §1, with “Lolium perenne (LOLPE),” for “(CHEAL),”, “(EPHHL),” for “(EPHHL), Ipomoea hederacea (IPOHE), Eleusine indica (ELEIN), Lolium perenne (LOLPE), Digitaria sanguinalis (DIGSA),”, “(ECHCG), Ipomoea hederacea (IPOHE)).” for “(ECHCG)).”, “one day” for “14 days”, “X080” for “XO80”

Setaria faberi (SETFA) [10] = assay: Pre-emergence biological efficacy, SETFA
Protocol: as §1, with “Lolium perenne (LOLPE),” for “(CHEAL),”, “(EPHHL),” for “(EPHHL), Ipomoea hederacea (IPOHE), Eleusine indica (ELEIN), Lolium perenne (LOLPE), Digitaria sanguinalis (DIGSA),”, “(ECHCG), Ipomoea hederacea (IPOHE)).” for “(ECHCG)).”, “one day” for “14 days”, “X080” for “XO80”

CHEAL = assay: Post-emergence biological efficacy, CHEAL
Protocol: as §1

Eleusine indica (ELEIN) = assay: Post-emergence biological efficacy, ELEIN
Protocol: as §1

[11] = test system: Amaranthus palmeri (AMAPA); assay: Post-emergence biological efficacy, AMAPA
Protocol: as §1

[12] = test system: Ipomoea hederacea (IPOHE); assay: Pre-emergence biological efficacy, IPOHE
Protocol: as §1, with “Lolium perenne (LOLPE),” for “(CHEAL),”, “(EPHHL),” for “(EPHHL), Ipomoea hederacea (IPOHE), Eleusine indica (ELEIN), Lolium perenne (LOLPE), Digitaria sanguinalis (DIGSA),”, “(ECHCG), Ipomoea hederacea (IPOHE)).” for “(ECHCG)).”, “one day” for “14 days”, “X080” for “XO80”

Lolium perenne (LOLPE) [13] = assay: Pre-emergence biological efficacy, LOLPE
Protocol: as §1, with “Lolium perenne (LOLPE),” for “(CHEAL),”, “(EPHHL),” for “(EPHHL), Ipomoea hederacea (IPOHE), Eleusine indica (ELEIN), Lolium perenne (LOLPE), Digitaria sanguinalis (DIGSA),”, “(ECHCG), Ipomoea hederacea (IPOHE)).” for “(ECHCG)).”, “one day” for “14 days”, “X080” for “XO80”

Row | Compound | damage to plant, IPOHE [1] | damage to plant, EPHHL [2] | damage to plant, SETFA (Setaria faberi (SETFA) [3]) | damage to plant, EPHHL [4] | damage to plant, ECHCG [5] | damage to plant, ECHCG [6] | damage to plant, LOLPE (Lolium perenne (LOLPE) [7]) | damage to plant, DIGSA [8] | damage to plant, AMAPA [9] | damage to plant, SETFA (Setaria faberi (SETFA) [10]) | damage to plant, CHEAL (CHEAL) | damage to plant, ELEIN (Eleusine indica (ELEIN)) | damage to plant, AMAPA [11] | damage to plant, IPOHE [12] | damage to plant, LOLPE (Lolium perenne (LOLPE) [13])
1 | CCOC(=O)C[C@H](C)OC(=O)c1cc(-c2ncc(C(F)(F)F)cc2Cl)ccc1Cl [Compound 1-525 (S-enantiomer), [(1S)-3-ethoxy-1-methyl-3-oxo-propyl] 2-chloro-5-[3-chloro-5-(trifluoromethyl)-2-pyridyl]-benzoate] | 90 | 100 | 100 | 100 | 100 | 100 | 100 | 100 | 100 | 100 | 100 | 100 | 100 | 70 | 100
2 | CCOC(=O)CC(C)OC(=O)c1cc(-c2ncc(C(F)(F)F)cc2Cl)ccc1Cl (stereo not drawn) [Compound 1-525, (3-ethoxy-1-methyl-3-oxo-propyl) 2-chloro-5-[3-chloro-5-(trifluoromethyl)-2-pyridyl]benzoate] | 80 | 100 | 100 | 100 | 100 | 100 | 100 | 100 | 100 | 100 | 100 | 100 | 100 | 70 | 100
3 | CCOC(=O)C[C@@H](C)OC(=O)c1cc(-c2ncc(C(F)(F)F)cc2Cl)c(F)cc1Cl [Compound 2-525 (R-enantiomer), [(1R)-3-ethoxy-1-methyl-3-oxo-propyl] 2-chloro-5-[3-chloro-5-(trifluoromethyl)-2-pyridyl]-4-fluoro-benzoate] | 100 | 100 | 100 | 100 | 100 | 100 | 100 | 100 | 100 | 100 | 100 | 100 | 100 | 60 | 100
4 | CCOC(=O)C[C@H](C)OC(=O)c1cc(-c2ncc(C(F)(F)F)cc2Cl)c(F)cc1Cl [Compound 2-525 (S-enantiomer), [(1S)-3-ethoxy-1-methyl-3-oxo-propyl] 2-chloro-5-[3-chloro-5-(trifluoromethyl)-2-pyridyl]-4-fluoro-benzoate] | 100 | 100 | 100 | 100 | 100 | 100 | 100 | 100 | 100 | 100 | 100 | 100 | 100 | 100 | 100
5 | COC(=O)C[C@H](C)OC(=O)c1nc(-c2ncc(C(F)(F)F)cc2Cl)c(F)cc1Cl [Compound 11-524 (S-enantiomer), [(1S)-3-methoxy-1-methyl-3-oxo-propyl] 3-chloro-6-[3-chloro-5-(trifluoromethyl)-2-pyridyl]-5-fluoro-pyridine-2-carboxylate] | 100 | 100 | 100 | 100 | 100 | 100 | 100 | 100 | 100 | 100 | 100 | 100 | 100 | 100 | 100
